Source: ChEMBL document CHEMBL5543108, “Structure-based design and synthesis of BML284 derivatives: A novel class of colchicine-site noncovalent tubulin degradation agents” (Eur J Med Chem, 2024)
pIC50: −log10 of the molar value. Calls of active or inactive are those of the source. The calls are words filed in the database; no cut-off is given here.

What was measured:
HeLa = assay: Antiproliferative activity against human HeLa cells assessed as reduction in cell viability measured after 72 hrs; assay type: functional, cell-based
A2780S [1] = assay: Antiproliferative activity against human A2780S cells assessed as reduction in cell viability measured after 72 hrs; assay type: functional, cell-based
A549 = assay: Antiproliferative activity against human A549 cells assessed as reduction in cell viability measured after 72 hrs; assay type: functional, cell-based; conditions: A549, 72 h
[2] = Selectivity ratio of IC50 for human A2780T cells to IC50 for human A2780S
A2780S [3] = assay: Induction of cell cycle arrest in human A2780S cells assessed as accumulation of cells at G0/G1 phase at 30 nM measured after 24 hrs by propidium iodide staining based analysis (reference value: 51.71%); assay type: functional
A2780S [4] = assay: Induction of cell cycle arrest in human A2780S cells assessed as accumulation of cells at G0/G1 phase at 100 nM measured after 24 hrs by propidium iodide staining based analysis (reference value: 51.71%); assay type: functional
A2780S [5] = assay: Induction of cell cycle arrest in human A2780S cells assessed as accumulation of cells at G2/M phase at 3 nM measured after 24 hrs by propidium iodide staining based analysis (reference value: 18.43%); assay type: functional
A2780S [6] = assay: Induction of cell cycle arrest in human A2780S cells assessed as accumulation of cells at G2/M phase at 10 nM measured after 24 hrs by propidium iodide staining based analysis (reference value: 18.43%); assay type: functional
A2780S [7] = assay: Induction of cell cycle arrest in human A2780S cells assessed as accumulation of cells at G2/M phase at 300 nM measured after 24 hrs by propidium iodide staining based analysis (reference value: 18.43%); assay type: functional
A2780S [8] = assay: Induction of cell cycle arrest in human A2780S cells assessed as accumulation of cells at S phase at 3 nM measured after 24 hrs by propidium iodide staining based analysis (reference value: 29.85%); assay type: functional
A2780S [9] = assay: Induction of cell cycle arrest in human A2780S cells assessed as accumulation of cells at S phase at 30 nM measured after 24 hrs by propidium iodide staining based analysis (reference value: 29.85%); assay type: functional
A2780/Taxol [10] = assay: Induction of cell cycle arrest in human A2780T cells assessed as accumulation of cells at G0/G1 phase at 3 nM measured after 24 hrs by propidium iodide staining based analysis (reference value: 46.141%); assay type: functional
A2780/Taxol [11] = assay: Induction of cell cycle arrest in human A2780T cells assessed as accumulation of cells at G0/G1 phase at 30 nM measured after 24 hrs by propidium iodide staining based analysis (reference value: 46.141%); assay type: functional
A2780/Taxol [12] = assay: Induction of cell cycle arrest in human A2780T cells assessed as accumulation of cells at G2/M phase at 10 nM measured after 24 hrs by propidium iodide staining based analysis (reference value: 24.13%); assay type: functional
A2780/Taxol [13] = assay: Induction of cell cycle arrest in human A2780T cells assessed as accumulation of cells at G2/M phase at 30 nM measured after 24 hrs by propidium iodide staining based analysis (reference value: 24.13%); assay type: functional
A2780/Taxol [14] = assay: Induction of cell cycle arrest in human A2780T cells assessed as accumulation of cells at S phase at 10 nM measured after 24 hrs by propidium iodide staining based analysis (reference value: 29.73%); assay type: functional
A2780/Taxol [15] = assay: Induction of cell cycle arrest in human A2780T cells assessed as accumulation of cells at S phase at 30 nM measured after 24 hrs by propidium iodide staining based analysis (reference value: 29.73%); assay type: functional
A2780/Taxol [16] = assay: Induction of cell cycle arrest in human A2780T cells assessed as accumulation of cells at S phase at 100 nM measured after 24 hrs by propidium iodide staining based analysis (reference value: 29.73%); assay type: functional
A2780S [17] = assay: Induction of apoptosis in human A2780S cells assessed as total number of late apoptotic cells at 30 nM measured after 48 hrs by Annexin-V-FITC and PI staining based flow cytometry analysis (reference value: 3.42%); assay type: functional
A2780S [18] = assay: Induction of apoptosis in human A2780S cells assessed as total number of late apoptotic cells at 300 nM measured after 48 hrs by Annexin-V-FITC and PI staining based flow cytometry analysis (reference value: 3.42%); assay type: functional
HUVEC = assay: Antivascular activity against human HUVEC cells assessed as inhibition of capillary tube formation incubated for 24 hrs by microscopy based analysis; assay type: functional, cell-based
A2780S [19] = assay: Antitumor activity against human A2780S cells xenografted in mouse model assessed as tumor growth inhibition at 20 mg/kg, iv administered every two days for 12 days relative to control; assay type: functional; conditions: 288 h, time 12 day, read-out: TGI
A2780S [20] = assay: Antitumor activity against human A2780S cells xenografted in mouse model assessed as tumor growth inhibition at 30 mg/kg, iv administered every two days for 12 days relative to control; assay type: functional; conditions: 288 h, time 12 day, read-out: TGI
[21] = Toxicity in mouse xenografted with human A2780S cells assessed as effect on body weight at 10 to 30 mg/kg, iv measured upto 12 days; assay type: organism-based; conditions: in vivo, 288 h, dose 10-30 mg/kg, time < 12 day
[22] = Toxicity in mouse xenografted with human A2780T cells assessed as effect on body weight at 10 to 30 mg/kg, iv measured upto 18 days; assay type: organism-based, A2780/Taxol; conditions: in vivo, 432 h, dose 10-30 mg/kg, time < 18 day
[23] = Toxicity in mouse xenografted with human A2780S cells assessed as side effects at 10 to 30 mg/kg, iv measured upto 12 days; assay type: organism-based; conditions: in vivo, 288 h, dose 10-30 mg/kg, time < 12 day
[24] = Toxicity in mouse xenografted with human A2780T cells assessed as side effects at 10 to 30 mg/kg, iv measured upto 18 days; assay type: organism-based, A2780/Taxol; conditions: in vivo, 432 h, dose 10-30 mg/kg, time < 18 day
[25] = Tmax in male Sprague-Dawley rat at 10 mg/kg, iv; assay type: ADME, organism-based; conditions: in vivo
[26] = Volume of distribution at steady state in male Sprague-Dawley rat at 10 mg/kg, iv; assay type: ADME, organism-based; conditions: in vivo, read-out: Vdss
[27] = AUC (0 to t) in male Sprague-Dawley rat at 10 mg/kg, iv; assay type: ADME, organism-based; conditions: in vivo
[28] = Tmax in male Sprague-Dawley rat at 10 mg/kg, po; assay type: ADME, organism-based; conditions: in vivo
[29] = Clearance in male Sprague-Dawley rat at 10 mg/kg, po; assay type: ADME, organism-based; conditions: in vivo
Tubulin (Homo sapiens) [30] = target: T1, Tubulin (Homo sapiens) (UniProt P68371+Q9H4B7+P0DPH7+P68366+Q13509+Q71U36+P04350+Q3ZCM7+P07437+P68363+Q9BQE3+Q6PEY2+Q13885+Q9BVA1+Q9BUF5); assay: Induction of tubulin degradation in human HeLa cells measured after 24 hrs by immunoblot analysis; assay type: cell-based; conditions: dose <= 50.0 µM
Tubulin (Homo sapiens) [31] = target: T1, Tubulin (Homo sapiens); assay: Induction of tubulin degradation in human HeLa cells at 1 uM measured after 24 hrs by immunoblot analysis; assay type: cell-based
HCT-116 = assay: cells; conditions: Homo sapiens, HCT-116, 72 h
Description: Antiproliferative activity against human HCT-116 cells assessed as reduction in cell viability measured after 72 hrs

MCF7 = assay: cells; conditions: Homo sapiens, MCF7, 72 h
Description: Antiproliferative activity against human MCF7 cells assessed as reduction in cell viability measured after 72 hrs

- pIC50 (HeLa): 7.30
- pIC50 (A2780S [1]): 7.74
- pIC50 (A549): 7.47
- Tmax [25]: 4.8 min
- Vd [26]: 7.43 L/kg
- AUC(0-t) [27]: 4270 ng·h/mL
- Tmax [28]: 3.67 h
- CL/F [29]: 314 mL/min/kg
- Activity (Tubulin (Homo sapiens) [30]): Dose-Dependent Effect
- Activity (Tubulin (Homo sapiens) [31]): Active
- pIC50 (HCT-116): 7.52
- pIC50 (MCF7): 7.70
SMILES: COc1cccc(-c2cc(NCc3ccc4[nH]ccc4c3)nc(N)n2)c1
- Ratio IC50 [2]: 0.89
- Activity (A2780S [3]): 48.16%
- Activity (A2780S [4]): 20.38%
- Activity (A2780S [5]): 23.17%
- Activity (A2780S [6]): 22.16%
- Activity (A2780S [7]): 82.11%
- Activity (A2780S [8]): 29.35%
- Activity (A2780S [9]): 28.02%
- Activity (A2780/Taxol [10]): 50.87%
- Activity (A2780/Taxol [11]): 44.27%
- Activity (A2780/Taxol [12]): 20.61%
- Activity (A2780/Taxol [13]): 20%
- Activity (A2780/Taxol [14]): 32.91%
- Activity (A2780/Taxol [15]): 35.74%
- Activity (A2780/Taxol [16]): 9.12%
- Activity (A2780S [17]): 5.29%
- Activity (A2780S [18]): 15.57%
- pIC50 (HUVEC): 6.21
- inhibition in vivo at 20 mg/kg (A2780S [19]): 63.6%
- inhibition in vivo at 30 mg/kg (A2780S [20]): 79.4%
- Activity [21]: Non-Toxic
- Activity [22]: Non-Toxic
- Activity [23]: Toxic
- Activity [24]: Toxic
